Results as given in patent publication US20150275313A1, “MARKER FOR DIAGNOSIS OF BLADDER CANCER RECURRENCE” (Dong-A University Research Foundation For Industry-Academy …, priority 2014, published 2015).

Experiments:
Format in all cases: cell-based
[1] = tested on: FANCB, FANCC, and FANCD2 genes; test: Expression of DNA repair genes in bladder cancer cell lines treated with doxorubicin; details: non-muscle invasive cell lines (UC5, UC9) and invasive cell lines (5637, EJ); doxorubicin 0 to 50 μM for 12 hours or 24 hours; FIG. 9C
Method: (§1) Further, the inventors of the present disclosure studied expression of FOXM1, CCNB1 genes, and FANCB, FANCC, and FANCD2 genes relevant to Fanconi anemia pathways after non-muscle invasive cell lines (UC5, UC9) and invasive cell lines (5637, EJ) were treated with doxorubicin used as an anticancer drug for bladder cancer at a concentration of 0 to 50 μM for 12 hours or 24 hours.
Furthermore, in the non-muscle invasive cell lines (UC5, UC9) and invasive cell lines (5637, EJ) treated as described above, expression of the genes relevant to DNA repair was checked.

[2] = tested on: invasive cell lines (5637, EJ); test: Cell viability of bladder cancer cell lines treated with doxorubicin; details: invasive cell lines (5637, EJ) compared with non-muscle invasive cell lines (UC5, UC9); doxorubicin 0 to 50 μM for 12 hours or 24 hours; FIG. 9A
[3] = tested on: FOXM1 and CCNB1 genes; test: Expression of FOXM1 and CCNB1 genes in bladder cancer cell lines treated with doxorubicin; details: invasive cell lines (5637, EJ); doxorubicin 0 to 50 μM for 12 hours or 24 hours; FIG. 9B
Method: as §1

COc1cccc2c1C(=O)c1c(O)c3c(c(O)c1C2=O)C[C@@](O)(C(=O)CO)C[C@@H]3O[C@H]1C[C@H](N)[C@H](O)[C@H](C)O1 [doxorubicin]
high: expression of the FANCB, FANCC, and FANCD2 genes relevant to Fanconi anemia pathways [1] | cell viability [2] | expression of FOXM1 and CCNB1 genes [3]
